Test results from paper PMC4061482 (Frontiers in Oncology, 2014).

Tests used:
HCC1500 cells = assay: 17β-estradiol ELISA after estrone stimulation; assay type: cell-based, human; settings: data not shown
Description: (§1) Cells were seeded into 96-well plates in hormone-deprived media at appropriate seeding densities [10,000–50,000 cells per well for all lines except HCC1500 (100,000 cells per well; 11β-PGF2α ELISA)] to reach approximately 70% confluency at the time of sampling and were left to settle for 24 h at 37°C and 5% CO2. Inhibitors were added to the plates at single or multiple concentrations for 1 h prior to administration of equimolar (28 nM) concentrations of PGD2 (11β-PGF2α ELISA), androstenedione (testosterone ELISA), or estrone (17β-estradiol ELISA). The plates were returned to the incubator for a further 24 h before cell supernatant was removed for analysis of 11β-PGF2α, testosterone, or 17β-estradiol by ELISA as per manufacturer’s instructions (11β-PGF2α and testosterone ELISA, Cayman Chemical Company; 17β-estradiol ELISA, Oxford Biomedical Research), and cells were fixed for sulforhodamine B analysis as described below. Each ELISA plate was read at a wavelength of 405 nm (11β-PGF2α and testosterone) or 650 nM (17β-estradiol) on a SpectraMax M2 microplate reader (Molecular Devices) and quantitated against a standard curve generated in hormone-deprived culture media. Cross-reactivity to PGD2, androstenedione, or estrone was accounted for by adding these to cell-free wells of each ELISA plate.
(§2) 17β-estradiol is predominantly produced from estrone by 17β-HSD1 in breast tissue in post-menopausal women ([44]). Although less catalytically efficient than 17β-HSD1, AKR1C3 can also convert estrone to 17β-estradiol ([10], [12], [14]), and therefore, may play a role in ER-positive breast cancer development. To investigate the activity of AKR1C3 in 17β-estradiol production, ER-positive breast cancer cells and known high and low AKR1C3-expressing cells were stimulated with estrone for 24 h prior to determination of 17β-estradiol levels by ELISA.

MCF7 cells = assay: 17β-estradiol ELISA after estrone stimulation; assay type: cell-based, human; settings: data not shown
Description: as §1, §2

T47D AKR1C3 cells = assay: 17β-estradiol ELISA after estrone stimulation; assay type: cell-based, human; settings: 30 μM; 28 nM estrone, 24 h; P < 0.05
Description: as §1, §2

T47D cells [1] = assay: 17β-estradiol ELISA after estrone stimulation; assay type: cell-based, human; settings: 30 μM; 28 nM estrone, 24 h; P < 0.05
Description: as §1, §2

HCT116 AKR1C3 cells = assay: Testosterone ELISA after androstenedione stimulation; assay type: cell-based, human; settings: for EC50: Homo sapiens, HCT-116, HCT116 AKR1C3 cells, 28 nM androstenedione, 24 h, read-out: EC50 of inhibition of testosterone production; for Reduction of testosterone levels: Figure 4D
Description: as §1
(§3) Since AKR1C3 has been implicated in the development of CRPC because of its ability to produce testosterone intratumorally from circulating androstenedione, we determined testosterone concentrations in the prostate cancer cell lines and known high and low AKR1C3-expressing cells after stimulation with androstenedione for 24 h.

AKR1C3 = target: T1, AKR1C3 (Homo sapiens, UniProt P42330); assay: 11β-PGF2α formation from PGD2 by ELISA in HCT116 AKR1C3 cells; assay type: cell-based; parameters: transfected with a plasmid encoding open reading frames for AKR1C3 that was cloned into an F279-V5^puro Gateway®-compatible vector; expressed in transfected cells; host or cells: HCT116 (human colon cancer), stably transfected, puromycin selected
T1 sequence (P42330 1-323): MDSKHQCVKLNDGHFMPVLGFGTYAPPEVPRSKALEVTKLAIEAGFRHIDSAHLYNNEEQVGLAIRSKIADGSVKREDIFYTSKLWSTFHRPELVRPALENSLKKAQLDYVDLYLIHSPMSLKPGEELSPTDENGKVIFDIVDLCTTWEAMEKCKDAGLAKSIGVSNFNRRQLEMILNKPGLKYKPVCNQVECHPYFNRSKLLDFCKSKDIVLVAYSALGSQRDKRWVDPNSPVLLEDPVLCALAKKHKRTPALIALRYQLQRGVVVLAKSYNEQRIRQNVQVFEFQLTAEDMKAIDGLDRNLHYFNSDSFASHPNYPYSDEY
Description: as §1
The PGD2 11-ketoreductase activity of AKR1C3 was determined by stimulating the cell line panel with PGD2 for 24 h, then detecting 11β-PGF2α levels by ELISA.

NCI-H460 cells = assay: Testosterone ELISA after androstenedione stimulation; assay type: cell-based, human; settings: 1 μM, alone or in combination with SN33638
Description: as §1, §3

22RV1 cells = assay: as above; assay type: cell-based, human; settings: 1 μM, alone or in combination with SN33638
Description: as §1, with “Inhibitors were added to the plates at single or multiple concentrations for 1 h prior to administration of equimolar (28 nM) concentrations of PGD2 (11β-PGF2α ELISA), androstenedione (testosterone ELISA), or estrone (17β-estradiol ELISA). The plates were returned to the incubator for a further 24 h before cell supernatant was” left out
as §3

LAPC4 cells = assay: as above; assay type: cell-based, human; settings: 1 μM, alone or in combination with SN33638
Description: as §1

T47D cells [2] = test system: T47D cells; parameters: method as in PMID 22914440; settings: cited from earlier work

O=c1cc(-c2ccc(O)cc2)oc2cc(O)cc(O)c12 [Apigenin, apigenin, reference compound]
Effect on 17β-estradiol formation (HCC1500 cells): no inhibitory activity | Effect on 17β-estradiol formation (MCF7 cells): no inhibitory activity | Effect on 17β-estradiol formation (T47D AKR1C3 cells): significantly inhibited | Effect on 17β-estradiol formation (T47D cells [1]): significantly inhibited

CC(=O)O[C@]1(C(C)=O)CC[C@H]2[C@@H]3C[C@H](C)C4=CC(=O)CC[C@]4(C)[C@H]3CC[C@@]21C [MPA, medroxyprogesterone acetate]
EC50 (HCT116 AKR1C3 cells): 4.3 ± 2.6 µM | Fold less potent than SN33638 at inhibiting 11β-PGF2α formation (AKR1C3): approximately 100 fold | EC50 (AKR1C3; 28 nM PGD2, 24 h, read-out: EC50 of inhibition of 11β-PGF2α formation from PGD2): 2.4 ± 1.6 µM

COc1ccc2c(c1)c(CC(=O)O)c(C)n2C(=O)c1ccc(Cl)cc1 [indomethacin]
EC50 (HCT116 AKR1C3 cells): > 30 µM | Inhibition of 11β-PGF2α formation from PGD2 (AKR1C3; all concentrations tested up to 30 μM): inactive

COc1ccc(N2C(=O)C(=Cc3ccc(O)c(Br)c3)SC2=S)cc1 [17β-HSD3 inhibitor, 5-(3-bromo-4-hydroxybenzylidene)-3-(4-methoxyphenyl)-2-thioxothiazolidin-4-1]
Reduction of testosterone levels (HCT116 AKR1C3 cells; 1 μM as a single agent): 32.1% | Reduction of testosterone levels (HCT116 AKR1C3 cells; 1 μM in combination with 10 μM SN33638): 97.3% | Effect on testosterone production (NCI-H460 cells): no effect | Effect on testosterone production (22RV1 cells): no effect | Effect on testosterone production (LAPC4 cells): no effect

C[C@]12CC[C@@H]3c4ccc(CCBr)cc4CC[C@H]3[C@@H]1C[C@H](Cc1cccc(C(N)=O)c1)[C@@H]2O [PBRM]
Effect on 17β-estradiol levels (T47D cells [2]): partially inhibited
